According to ChEMBL document CHEMBL1201862, “PubChem BioAssay data set” (2004):
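Compound exposure: 48 hours, 5 concentrations, 96-well plates. Abbreviation: GI50, concentration required for 50% inhibition of growth.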 Calls of active or inactive are those of the source. Cut-off read from the data, not from the text of the source: active = GI50 up to about 1.1 µM and inactive = higher.

How the values were obtained:
Test in all cases: NCI tumour cell line growth inhibition, 48 h
786-0 = test system: 786-0
A498 = test system: A498
A549 = test system: A549
ACHN = test system: ACHN
BT-549 = test system: BT-549
CAKI-1 = test system: CAKI-1
CCRF-CEM = test system: CCRF-CEM
COLO 205 = test system: COLO 205
DU-145 = test system: DU-145
EKVX = test system: EKVX
HCC 2998 = test system: HCC 2998
HCT-116 = test system: HCT-116
HCT-15 = test system: HCT-15
HL-60 = test system: HL-60
HOP-62 = test system: HOP-62
HOP-92 = test system: HOP-92
HT-29 = test system: HT-29
Hs-578T = test system: Hs-578T
IGROV-1 = test system: IGROV-1
K562 = test system: K562
KM12 = test system: KM12
LOX IMVI = test system: LOX IMVI
M14 = test system: M14
MCF7 = test system: MCF7
MDA-MB-231 = test system: MDA-MB-231
MDA-MB-435 = test system: MDA-MB-435
MDA-N = test system: MDA-N
MOLT-4 = test system: MOLT-4
Malme-3M = test system: Malme-3M
NCI-H23 = test system: NCI-H23
NCI-H460 = test system: NCI-H460
NCI-H522 = test system: NCI-H522
NCI/ADR-RES = test system: NCI/ADR-RES
OVCAR-3 = test system: OVCAR-3
OVCAR-5 = test system: OVCAR-5
OVCAR-8 = test system: OVCAR-8
PC-3 = test system: PC-3
RPMI-8226 = test system: RPMI-8226
RXF 393 = test system: RXF 393
SF-268 = test system: SF-268
SF-295 = test system: SF-295
SK-MEL-28 = test system: SK-MEL-28
SK-MEL-2 = test system: SK-MEL-2
SK-MEL-5 = test system: SK-MEL-5
SK-OV-3 = test system: SK-OV-3
SN12C = test system: SN12C
SNB-19 = test system: SNB-19
SNB-75 = test system: SNB-75
SR = test system: SR
SW-620 = test system: SW-620
T47D = test system: T47D
TK-10 = test system: TK-10
U-251 = test system: U-251
UACC-257 = test system: UACC-257
UACC-62 = test system: UACC-62
UO-31 = test system: UO-31
NCI-H226 = test system: NCI-H226
OVCAR-4 = test system: OVCAR-4
SF-539 = test system: SF-539

Question: `CC(C)(C)OC(=O)NC(Cc1ccc(OCc2ccccc2)cn1)C(=O)NCc1ccccc1` (centres undefined) was tested. Which GI50 (786-0) did it give?
Answer: 27.1 µM (inactive)

Question: What about the GI50 (A498) of the same molecule?
Answer: 32.1 µM (inactive)

Question: And the GI50 (A549)?
Answer: 36.6 µM (inactive)

Question: What about the GI50 (ACHN) of the same molecule?
Answer: 31.3 µM (inactive)

Question: What about the GI50 (BT-549) of the same molecule?
Answer: 20.7 µM (inactive)

Question: What about the GI50 (CAKI-1) of the same molecule?
Answer: 28.6 µM (inactive)

Question: And the GI50 (CCRF-CEM)?
Answer: 12.4 µM (inactive)

Question: And the GI50 (COLO 205)?
Answer: 17.1 µM (inactive)

Question: And the GI50 (DU-145)?
Answer: 40.5 µM (inactive)

Question: What about the GI50 (EKVX) of the same molecule?
Answer: 26.2 µM (inactive)

Question: What about the GI50 (HCC 2998) of the same molecule?
Answer: 34.2 µM (inactive)

Question: What about the GI50 (HCT-116) of the same molecule?
Answer: 26.5 µM (inactive)

Question: What about the GI50 (HCT-15) of the same molecule?
Answer: 24.6 µM

Question: And the GI50 (HL-60)?
Answer: 15.1 µM (inactive)

Question: What about the GI50 (HOP-62) of the same molecule?
Answer: 23.3 µM (inactive)

Question: What about the GI50 (HOP-92) of the same molecule?
Answer: 20 µM (inactive)

Question: And the GI50 (HT-29)?
Answer: 29.9 µM (inactive)

Question: What about the GI50 (Hs-578T) of the same molecule?
Answer: 29 µM (inactive)

Question: And the GI50 (IGROV-1)?
Answer: 32.3 µM (inactive)

Question: What about the GI50 (K562) of the same molecule?
Answer: 22.1 µM (inactive)

Question: What about the GI50 (KM12) of the same molecule?
Answer: 29.7 µM (inactive)

Question: What about the GI50 (LOX IMVI) of the same molecule?
Answer: 19.1 µM (inactive)

Question: And the GI50 (M14)?
Answer: 25.8 µM (inactive)

Question: What about the GI50 (MCF7) of the same molecule?
Answer: 29.5 µM (inactive)

Question: And the GI50 (MDA-MB-231)?
Answer: 24.6 µM (inactive)

Question: What about the GI50 (MDA-MB-435) of the same molecule?
Answer: 20.1 µM (inactive)

Question: And the GI50 (MDA-N)?
Answer: 19.8 µM (inactive)

Question: And the GI50 (MOLT-4)?
Answer: 13.2 µM (inactive)

Question: And the GI50 (Malme-3M)?
Answer: 22.8 µM (inactive)

Question: And the GI50 (NCI-H23)?
Answer: 17 µM (inactive)

Question: What about the GI50 (NCI-H460) of the same molecule?
Answer: 22.7 µM (inactive)

Question: And the GI50 (NCI-H522)?
Answer: 17.1 µM (inactive)

Question: And the GI50 (NCI/ADR-RES)?
Answer: 16.7 µM (inactive)

Question: What about the GI50 (OVCAR-3) of the same molecule?
Answer: 19.3 µM (inactive)

Question: What about the GI50 (OVCAR-5) of the same molecule?
Answer: 38.6 µM (inactive)

Question: And the GI50 (OVCAR-8)?
Answer: 26.3 µM (inactive)

Question: What about the GI50 (PC-3) of the same molecule?
Answer: 20.4 µM (inactive)

Question: And the GI50 (RPMI-8226)?
Answer: 16.3 µM (inactive)

Question: What about the GI50 (RXF 393) of the same molecule?
Answer: 27.9 µM (inactive)

Question: And the GI50 (SF-268)?
Answer: 23.6 µM (inactive)

Question: What about the GI50 (SF-295) of the same molecule?
Answer: 21.2 µM (inactive)

Question: And the GI50 (SK-MEL-28)?
Answer: 31.3 µM (inactive)

Question: What about the GI50 (SK-MEL-2) of the same molecule?
Answer: 14.3 µM (inactive)

Question: What about the GI50 (SK-MEL-5) of the same molecule?
Answer: 13.3 µM (inactive)

Question: And the GI50 (SK-OV-3)?
Answer: 22.1 µM (inactive)

Question: And the GI50 (SN12C)?
Answer: 28.1 µM (inactive)

Question: What about the GI50 (SNB-19) of the same molecule?
Answer: 49.9 µM (inactive)

Question: What about the GI50 (SNB-75) of the same molecule?
Answer: 27.1 µM (inactive)

Question: And the GI50 (SR)?
Answer: 10.1 µM (inactive)

Question: What about the GI50 (SW-620) of the same molecule?
Answer: 31.3 µM (inactive)

Question: And the GI50 (T47D)?
Answer: 16.7 µM (inactive)

Question: What about the GI50 (TK-10) of the same molecule?
Answer: 30.3 µM (inactive)

Question: And the GI50 (U-251)?
Answer: 26.1 µM (inactive)

Question: What about the GI50 (UACC-257) of the same molecule?
Answer: 16.9 µM (inactive)

Question: What about the GI50 (UACC-62) of the same molecule?
Answer: 14.5 µM (inactive)

Question: And the GI50 (UO-31)?
Answer: 34.7 µM (inactive)

Question: `BrCc1ccc(CBr)c2c1-c1c(CBr)ccc3ccc(CBr)c-2c13` was tested. Which GI50 (786-0) did it give?
Answer: > 100 µM (inactive)

Question: And the GI50 (A498)?
Answer: > 100 µM (inactive)

Question: What about the GI50 (A549) of the same molecule?
Answer: > 100 µM (inactive)

Question: What about the GI50 (ACHN) of the same molecule?
Answer: > 100 µM (inactive)

Question: And the GI50 (BT-549)?
Answer: > 100 µM (inactive)

Question: What about the GI50 (DU-145) of the same molecule?
Answer: > 100 µM (inactive)

Question: And the GI50 (EKVX)?
Answer: > 100 µM (inactive)

Question: What about the GI50 (HCC 2998) of the same molecule?
Answer: > 100 µM (inactive)

Question: And the GI50 (HCT-116)?
Answer: 98.6 µM (inactive)

Question: What about the GI50 (HCT-15) of the same molecule?
Answer: > 100 µM

Question: And the GI50 (HL-60)?
Answer: 40.6 µM (inactive)

Question: What about the GI50 (HOP-62) of the same molecule?
Answer: > 100 µM (inactive)

Question: What about the GI50 (HOP-92) of the same molecule?
Answer: > 100 µM (inactive)

Question: And the GI50 (HT-29)?
Answer: > 100 µM (inactive)

Question: What about the GI50 (Hs-578T) of the same molecule?
Answer: 53.2 µM (inactive)

Question: And the GI50 (IGROV-1)?
Answer: > 100 µM (inactive)

Question: And the GI50 (K562)?
Answer: 99.1 µM (inactive)

Question: And the GI50 (KM12)?
Answer: > 100 µM (inactive)

Question: What about the GI50 (LOX IMVI) of the same molecule?
Answer: > 100 µM (inactive)

Question: And the GI50 (M14)?
Answer: > 100 µM (inactive)

Question: What about the GI50 (MCF7) of the same molecule?
Answer: > 100 µM (inactive)

Question: What about the GI50 (MDA-MB-231) of the same molecule?
Answer: > 100 µM (inactive)

Question: And the GI50 (MDA-MB-435)?
Answer: > 100 µM (inactive)

Question: What about the GI50 (MDA-N) of the same molecule?
Answer: > 100 µM (inactive)

Question: What about the GI50 (MOLT-4) of the same molecule?
Answer: 33.8 µM (inactive)

Question: What about the GI50 (Malme-3M) of the same molecule?
Answer: > 100 µM (inactive)

Question: What about the GI50 (NCI-H226) of the same molecule?
Answer: > 100 µM (inactive)

Question: And the GI50 (NCI-H460)?
Answer: > 100 µM (inactive)

Question: And the GI50 (NCI-H522)?
Answer: > 100 µM (inactive)

Question: And the GI50 (NCI/ADR-RES)?
Answer: > 100 µM (inactive)

Question: What about the GI50 (OVCAR-3) of the same molecule?
Answer: > 100 µM (inactive)

Question: What about the GI50 (OVCAR-4) of the same molecule?
Answer: > 100 µM (inactive)

Question: What about the GI50 (OVCAR-5) of the same molecule?
Answer: > 100 µM (inactive)

Question: And the GI50 (OVCAR-8)?
Answer: > 100 µM (inactive)

Question: And the GI50 (PC-3)?
Answer: 36.6 µM (inactive)

Question: What about the GI50 (RPMI-8226) of the same molecule?
Answer: 95.7 µM (inactive)

Question: What about the GI50 (SF-268) of the same molecule?
Answer: > 100 µM (inactive)

Question: And the GI50 (SF-295)?
Answer: > 100 µM (inactive)

Question: What about the GI50 (SF-539) of the same molecule?
Answer: 56.9 µM (inactive)

Question: What about the GI50 (SK-MEL-28) of the same molecule?
Answer: > 100 µM (inactive)

Question: What about the GI50 (SK-MEL-2) of the same molecule?
Answer: > 100 µM (inactive)

Question: What about the GI50 (SK-OV-3) of the same molecule?
Answer: > 100 µM (inactive)

Question: What about the GI50 (SN12C) of the same molecule?
Answer: > 100 µM (inactive)

Question: What about the GI50 (SNB-19) of the same molecule?
Answer: > 100 µM (inactive)

Question: And the GI50 (SNB-75)?
Answer: > 100 µM (inactive)

Question: And the GI50 (SR)?
Answer: 46.2 µM (inactive)

Question: What about the GI50 (SW-620) of the same molecule?
Answer: > 100 µM (inactive)

Question: What about the GI50 (T47D) of the same molecule?
Answer: > 100 µM (inactive)

Question: And the GI50 (TK-10)?
Answer: > 100 µM (inactive)

Question: What about the GI50 (U-251) of the same molecule?
Answer: 49.8 µM (inactive)

Question: What about the GI50 (UACC-257) of the same molecule?
Answer: > 100 µM (inactive)

Question: What about the GI50 (UACC-62) of the same molecule?
Answer: > 100 µM (inactive)

Question: What about the GI50 (UO-31) of the same molecule?
Answer: > 100 µM (inactive)
